Experimental data taken from article PMC3673949, “Small Molecule R1498 as a Well-Tolerated and Orally Active Kinase Inhibitor for Hepatocellular Carcinoma and Gastric Cancer Treatment via Targeting Angiogenesis and Mitosis Pathways” (PLoS ONE, 2013).

Key:
[1] = system: BEL-7402 cells; assay: Cell cycle distribution by flow cytometry; assay type: cell-based, human; conditions: BEL-7402, 10 µM
Description: (§1) DNA content was measured with a FACS-Calibur cytometer (Becton Dickinson, San Jose, CA) and cell cycle distribution was calculated as described previously.

[2] = system: SGC-7901 cells; assay: Cell cycle distribution by flow cytometry; assay type: cell-based, human; conditions: SGC-7901, 10 µM
Description: as §1

[3] = system: MGC-803 xenograft; assay: Xenograft efficacy study; assay type: in vivo, BALB/C nu/nu nude mice; conditions: MGC-803, 25 mg/kg twice a day per oral gavage
Description: (§3) Tumor cells were inoculated into the right flank of BALB/C nu/nu female nude mice (5∼6 weeks, 16∼18 g, obtained from Sino-British SIPPR/BK Lab. Animal Ltd, Shanghai, China) at optimal density based on our in-house validation study. After the tumor was established and reached 100∼150 mm^3, the mice were randomized into ten mice per group and received treatment according to the schedule. The tumor growth was recorded three times a week with the measurement of length (L) and width (W) by caliper, and calculated as tumor volume (TV, mm^3) = 0.5*L*W*W (mm). […] The tumor regression of individual mouse was defined - the tumor volume at the end was less than the tumor volume when treatment was initiated.

[4] = system: tubulin; assay: In vitro tubulin polymerization assay; assay type: biochemical; conditions: 40 µM, OD340
Description: In vitro tubulin polymerization assay was performed as described previously.

[5] = system: BGC-823 xenograft; assay: Xenograft efficacy study; assay type: in vivo, BALB/C nu/nu nude mice
Description: as §3

[6] = system: hepatocellular carcinoma cell lines; assay: Cell proliferation assay (CCK-8, 72 h); assay type: cell-based; conditions: Homo sapiens, hepatocellular carcinoma cell line panel, read-out: overall mean IC50
Description: (§2) Each cell line was seeded in a 96-well tissue culture plate (Corning, NY) at a predetermined density in 180 µL complete medium, attached overnight and treated by compound for another 72 h. Then the medium was discarded and replaced with 10% CCK-8 (Dojindo, Kumamoto, Japan) in complete medium, then incubated the plates for another 2 h. The OD450 was measured with SpectraMAX 190 spectrophotometer (MDS, Sunnyvale, CA). A background absorbance of ODblank was subtracted from all wells.

[7] = system: gastric cancer cell lines; assay: Cell proliferation assay (CCK-8, 72 h); assay type: cell-based; conditions: Homo sapiens, gastric cancer cell line panel, read-out: overall mean IC50
Description: as §2

[8] = system: nasopharyngeal carcinoma cell lines; assay: Cell proliferation assay (CCK-8, 72 h); assay type: cell-based; conditions: Homo sapiens, nasopharyngeal carcinoma cell line panel, read-out: overall mean IC50
Description: as §2

[9] = system: HUVEC; assay: HUVEC tube formation assay; assay type: cell-based, human
[10] = Dose range finding and toxicokinetic study; assay type: in vivo
Description: Dose range finding and toxicokinetic study was carried out in rats and Beagle dogs based on in vitro metabolites identification. Wistar rats (male: 3, female 3 in each group, from Vital River, Beijing, China) were fasted overnight, and then received test articles as 0, 6.25, 50 and 100 mg/kg twice a day per oral gavage for a 14-day continuous regimen. Motility observation was applied on a daily bases to find the maximum tolerant dose for the animals. The animals were sacrificed on d14, and the following toxicology observation were carried out including body weight changes, clinical observation, gross necropsy, hematology chemistry and histopathology. On day 1 and day 14, blood samples were obtained via jugular vein puncture from all animals (if alive, using EDTA-K2 tubes). Samples were mixed gently and placed on crushed wet-ice until centrifugation, which was carried out immediately. The samples were centrifuged for approximately 15 minutes at 4°C 2,700 rpm. The resultant plasma was separated, transferred to uniquely labeled clear polypropylene tubes and frozen immediately over solid carbon dioxide (dry ice) until transferred to approximately −80°C. Each animal was bled at the following time points: approximately 5 min, 15 min, 30 min, 1, 2, 4, 8 and 24 hours post first dose on the specific day. The drug concentrations in the plasma were determined by LC-MS/MS. The pharmacokinetic analysis was performed using WinNonlin software (Version 5.2, Pharsight Corporation, CA, USA), and the pharmacokinetic parameters were calculated using a Non-compartmental model method.
Beagle dogs (approximately 8–10 months, from Beijing Marshall Biotechnology Co. Ltd., Beijing, China) were subjected to the study protocol as described above. Each group has one male and one female dog, the dosages of test article were: 0, 1, 7.5 and 15 mg/kg, respectively.

[11] = system: HGC-27 xenograft; assay: Xenograft efficacy study; assay type: in vivo, BALB/C nu/nu nude mice; conditions: HGC-27, 25 mg/kg twice a day per oral gavage
Description: as §3

With `COc1ccc2c(c1)C(c1ccccc1Cl)=Nc1c(n[nH]c1C)N2` [R1498] the “cells with >4N DNA content” value ([1]; control 6.7%) was 17.6%, the “cells in G2/M phases” value ([1]; control 25.6%) was 57.0% and the “cells with >4N DNA content (polyploid cells)” value ([2]; control 3.1%) was 21.6%. For the same molecule, the “cells in G2/M phases” value ([2]; control 25.2%) was 75.5%, the “Final TGI%” value ([3]; day of study termination) was 99% and the Body weight changes% ([3]; before vs after treatment) was 14%. For the same molecule, the “Tumor Regression” value ([3]; mice with regression/group) was 5/10, the “effect on microtubule polymerization” value [4] was “neither stabilized nor destabilized microtubule polymerization” and the “Final TGI%” value ([5]; BGC-823, 25 mg/kg twice a day per oral gavage, day of study termination (Table S2)) was 94%. For the same molecule, the Body weight changes% ([5]; BGC-823, 25 mg/kg twice a day per oral gavage, before vs after treatment) was 2%, the “Tumor Regression” value ([5]; BGC-823, 25 mg/kg twice a day per oral gavage, mice with regression/group) was 0/10 and the “Final TGI%” value ([5]; BGC-823, 6.25 mpk, bid, PO) was 78%. For the same molecule, the “Final TGI%” value ([5]; BGC-823, 12.5 mpk, bid, PO) was 88%, the “Final TGI%” value ([5]; BGC-823, 25 mpk, bid, PO (Table S3)) was 94% and the IC50 [6] was 7.81 µM. The IC50 [7] was 7.55 µM, the IC50 [8] was 30.1 µM and the “HUVEC proliferation under tube formation treatment condition” value ([9]; 8 hr exposure, data not shown) was “didn’t affect HUVEC proliferation”. The tube formation ([9]; HUVEC on Matrigel, 3 µM, 8 h, vs DMSO) was “formed fewer intact tube meshes”, the MTD at 2 week ([10]; both sexes, dog, in vivo, po, beagle dogs (F/M), 2-week DRF, bid dosing) was greater than 15 mg/kg and the AUC(0-t) ([10]; both sexes, dog, plasma, po, 15 mg/kg, beagle dogs, at highest dose, read-out: MTD AUC0-24) was greater than 111 µg·h/mL. For the same molecule, the Histopathology results ([10]; dogs, 0, 1, 7.5, 15 mg/kg, 2-week DRF) was “no significant findings at all doses”, the “dose at which body weight loss began” value ([10]; female dog) was 7.5 mg/kg and the “Final TGI%” value ([11]; day of study termination) was 85%. The Body weight changes% ([11]; before vs after treatment) was 6% and the “Tumor Regression” value ([11]; mice with regression/group) was 0/10.
